Results as given in patent publication US20110065749A1, “METHOD AND PHARMACEUTICAL COMPOSITION FOR TREATMENT OF MENTAL DISORDERS” (ACTIVE CO. LTD., priority 2008, published 2011).
Where a name gives a salt, the structure may show the parent alone.

Tests used:
Fibromyalgia [1] = assay: Case 17: fibromyalgia (3) patient; type: in vivo, human
Source text: […] Being unresponsive to prescribed medicines, they were instructed to do gentle stretching exercise and massage, as well as thermotherapy on affected areas. However, their arthralgia was so terrible that they could not perform stretching exercise or other directions. They had pain at all the 18 tender points of the whole body, a jaw abnormality, and a strong pain at both knee joints, which made their unable to go to hospital on foot.

[2] = system: manic state of bipolar I disorder; assay: Case 3: manic-depressive illness patient; type: in vivo, human
Procedure: Case 3: Manic-Depressive Illness Patient was a person, who had continuously been in a manic state of bipolar I disorder for over one month. An antiepileptic drug, or 1,200 mg of Limas®, was ineffective. Antipsychotic drugs were not usable due to significant side effects. […] When they discontinued the administration of Cephadol®, the manic state appeared after 5 days.

Alzheimer-Type Dementia = assay: Case 4: Alzheimer-type dementia patient; type: in vivo, human; details: 50 mg before sleeping, added to donepezil hydrochloride
Source text: Case 4: Alzheimer-Type Dementia

Fibromyalgia [3] = assay: Case 15: fibromyalgia (1) patient; type: in vivo, human
Procedure: They then visited the inventor's clinic. When the inventor started the treatment with 75 mg/day Cephadol®, systemic pain of the patient was improved in two days. […] As a result, they became able to perform usual household work, go outside, and further make a trip.

Bulimia [4] = assay: Case 7: bulimia (1) patient; type: in vivo, human; details: 150 mg/day
Source text: Patient was a person, who had been suffering from bulimia. Antidepressant, antianxiety, and other drugs were all ineffective. […] The effect of Cephadol® appeared in about two days.

Bulimia [5] = assay: Case 8: bulimia (2) patient; type: in vivo, human; details: 150 mg/day
Source text: Patient was a person, who had been suffering from bulimia. The bulimia persisted even after their marriage and childbearing.

vertebral artery = details: dog experiments; cited from earlier work
depression = assay: Case 9: depressed symptoms patient, HAMD; type: in vivo, human; details: 75 mg/day
Source text: For evaluation of the state of depression, for example, Hamilton's rating scale for depression (HAMD) is available. The HAMD was developed by Max Hamilton in 1960 for the purpose of measuring the severity of a patient diagnosed with depression (Hamilton, M., Journal of Neurology, Neurosurgery & Psychiatry, 23-56-62 (1960) and Hamilton, M., “Development of rating scale for primary depressive illness”, British Journal of Social and Clinical Psychology, 6: 278-296 (1967)). In view of its high usefulness, it is a representative scale of evaluation for depression, widely used in clinical researches and practices. The 17 item version is used for clinical trials of antidepressants in Japan, whereas the 21 item version and the 24 item version are used in Europe or other countries.
When the severity is calculated using Hamilton's rating scale for depression (HAMD), each item is evaluated with three grades of 0-2, or five grades of 0-4. For example, the case is diagnosed as severe where the point is 20 or higher and, as the point decreases, the symptom is diagnosed as being improved.
Case 9: Depressed Symptoms
Administration to the patient of 75 mg/day Cephadol® reduced the HAMD score from 20 points to 7 points after 3 days.

[6] = system: nystagmus by experimental disorder of balance function; details: rabbit experiments; cited from earlier work
Withdrawal Symptoms = assay: Case 13: withdrawal symptoms on reducing other drugs; type: in vivo, human
Procedure: Case 13: Withdrawal Symptoms A office worker had been on 10 mg Paxil®, 2 mg Rohypnol® and 2 mg Depas® before sleeping. Although they had tried to reduce the doses of the drugs, emergence of withdrawal syndrome had hampered the reduction of the drugs. They started to take Cephadol®, 25 mg after dinner and 50 mg before sleeping. It made them able to be free from the other drugs in two weeks.

Schizophrenia = assay: Case 12: schizophrenia patient; type: in vivo, human; details: 150 mg/day
Source text: A person had been diagnosed with schizophrenia and had received antipsychotic drugs. In spite of the treatment with newest antipsychotic drugs, the dullness of thinking, depression, and obesity of the patient were not improved.

[7] = system: Panic Disorder and Multiple Personality Disorder; assay: Case 10: panic disorder and multiple personality disorder patient; type: in vivo, human
Source text: Case 10: Panic Disorder and Multiple Personality Disorder
Patient was a single person, who had been treated at several psychiatric hospitals. […] They report that the medicine is best to calm their mind, and easier to take than any other drugs that they have ever taken.

Fibromyalgia [8] = assay: Case 16: fibromyalgia (2) patient; type: in vivo, human
Source text: […] There were persistent systemic malaise, lassitude, depressed mood, sleeplessness, neck stiffness and systemic pain. Their score of depression on Hamilton D scale was 25 to 28. No hematological abnormality was detected. As a result of overall judgment based on examinations including a tender point examination, they were diagnosed as having fibromyalgia. They were unresponsive to tricyclic or tetracyclic antidepressants, SSRIs, SNRIs, and Moclobemide. Then, they continued the treatment with 60 mg/day fluoxetine. […] It was concluded that the onset of their depression was due to the systemic pain, and the depression was improved by the drastic improvement of the systemic pain.

[9] = 25 mg after dinner and 50 mg before sleeping

SMILES: OC(CCCN1CCCCC1)(c1ccccc1)c1ccccc1 [Cephadol®, 1,1-diphenyl-4-piperidine-1-ylbuthan-1-ol monohydrochloride]
- pain at both knee joints (Fibromyalgia [1]; 75 mg/day): improved the pain at both knee joints
- systemic pain (Fibromyalgia [1]; 75 mg/day): eliminated the systemic pain
- mobility of large joints (objective) (Fibromyalgia [1]; 125 mg/day): the mobility of large joints increased
- pain at both knee joints (Fibromyalgia [1]; dosage increased to 125 mg/day): the pain at both knee joints also disappeared
- pain at both knee joints (Fibromyalgia [1]; dosage reduced to 75 mg/day, on the next day): recurrence of the pain at both knee joints
- pain at both knee joints (Fibromyalgia [1]; dose re-increased to 125 mg/day, on the next day): eliminated the pain at both knee joints
- effect on the disease (manic state) ([2]; 150 mg/day): significant amelioration of the disease
- side effects ([2]; 150 mg/day): no side effects
- time until the manic state appeared after discontinuation ([2]; after discontinuation of 150 mg/day): 5 days
- excitation caused by donepezil hydrochloride (Alzheimer-Type Dementia): reduced the excitation
- systemic pain (Fibromyalgia [3]; 75 mg/day, in two days): improved
- mobility of large joints (objective) (Fibromyalgia [3]; 150 mg/day): the mobility of large joints increased
- pain at 18 tender points including low back pain (Fibromyalgia [3]; 150 mg/day): totally improved
- arthralgia (Fibromyalgia [3]; 150 mg/day, increased one week later): complete elimination of arthralgia
- side effects (Bulimia [4]): no side effects
- overeating (Bulimia [4]; previously two to three times a day): significantly improved overeating
- duration of the effect (Bulimia [5]): more than two
- overeating (Bulimia [5]): stopped their overeating
- side effects (Bulimia [5]; more than two months): without any side effects
- blood flow of the vertebral artery (vertebral artery): increase the blood flow thereof
- spasm of the vertebral artery (vertebral artery): remit the spasm of the vertebral artery
- side effects (depression): There were side effects
- HAMD score (depression; after 3 days, from 20 points): 7 points
- emergence of nystagmus by experimental disorder of balance function [6]: inhibited the emergence of nystagmus by experimental disorder of balance function
- side effects (Withdrawal Symptoms; [9]): no side effects
- time until free from the other drugs (Paxil, Rohypnol, Depas) (Withdrawal Symptoms; [9]): two
- outcome after tapering Cephadol (Withdrawal Symptoms; dose reduced from 50 mg to 25 mg, and to 0 mg): discontinuation of all the drugs
- appetite and body weight (Schizophrenia): reduced their appetite and body weight
- side effects and relapse of schizophrenia (Schizophrenia): no side effects, nor relapse of schizophrenia
- thinking speed and depression (Schizophrenia): improved their subjective and objective thinking speed and depression
- panic disorder ([7]; 75 mg/day for one week, then 150 mg/day): significant improvement of panic disorder
- transformation of personality ([7]; 150 mg/day, previously 5 to 10 times a month): improved
- antianxiety effect ([7]; 75-150 mg/day): strong antianxiety effect
- score of Hamilton D scale (Fibromyalgia [8]; 100 mg/day added to fluoxetine, 25 to 28 before): 16
- neck stiffness and systemic pain (Fibromyalgia [8]; 100 mg/day for one week, added to 60 mg/day fluoxetine): reduced neck stiffness and systemic pain
- activity of daily living (Fibromyalgia [8]; 100 mg/day, after two weeks): improved drastically
